Consider 7 compounds from publication PMC12621043, “Un-LOK-ing a New Approach for Conformational Selective Targeting of STK10 (LOK)” (ACS Medicinal Chemistry Letters, 2025).

Molecules are shown by their SMILES.

Common to all, as to assay: DSF Tm panel
Holding throughout (type): binding
Holding throughout (conditions): 10 μM compound

The target of one test is T1, EPHA7A (Homo sapiens, UniProt Q15375).
T1 construct: purchased in-house DSF kinase panel (SGC-style construct names; the trailing letter is the construct ID)
T1 sequence (Q15375 590-899): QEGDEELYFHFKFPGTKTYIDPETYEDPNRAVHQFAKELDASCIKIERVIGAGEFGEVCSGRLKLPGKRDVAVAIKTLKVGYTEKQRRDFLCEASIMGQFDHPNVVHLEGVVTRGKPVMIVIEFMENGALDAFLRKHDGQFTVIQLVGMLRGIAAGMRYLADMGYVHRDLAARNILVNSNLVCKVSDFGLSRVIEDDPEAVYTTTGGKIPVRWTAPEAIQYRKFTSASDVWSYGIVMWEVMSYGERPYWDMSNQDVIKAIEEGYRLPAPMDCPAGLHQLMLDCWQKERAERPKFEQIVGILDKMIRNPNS

In a further test the target is T2, DYRK2A (Homo sapiens, UniProt Q92630).
T2 construct: purchased in-house DSF kinase panel (SGC-style construct names; the trailing letter is the construct ID)
T2 sequence (Q92630 1-601): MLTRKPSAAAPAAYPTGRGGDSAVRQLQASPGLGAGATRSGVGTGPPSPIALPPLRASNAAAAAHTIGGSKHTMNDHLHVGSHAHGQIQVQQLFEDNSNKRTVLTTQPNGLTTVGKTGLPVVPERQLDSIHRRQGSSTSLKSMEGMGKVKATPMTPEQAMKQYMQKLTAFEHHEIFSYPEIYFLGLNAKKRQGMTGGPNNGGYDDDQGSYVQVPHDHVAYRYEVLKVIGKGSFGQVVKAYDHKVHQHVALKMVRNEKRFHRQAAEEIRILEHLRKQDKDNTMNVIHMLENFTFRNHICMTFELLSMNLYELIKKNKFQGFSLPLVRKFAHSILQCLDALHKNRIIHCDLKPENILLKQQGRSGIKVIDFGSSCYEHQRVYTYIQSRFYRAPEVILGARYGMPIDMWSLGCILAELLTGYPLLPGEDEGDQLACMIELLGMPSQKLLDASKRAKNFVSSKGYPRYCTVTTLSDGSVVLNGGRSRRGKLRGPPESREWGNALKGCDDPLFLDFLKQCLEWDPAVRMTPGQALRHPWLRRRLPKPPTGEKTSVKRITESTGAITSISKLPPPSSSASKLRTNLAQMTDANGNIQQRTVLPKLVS

In a further test the target is T3, MELKA (Homo sapiens, UniProt Q14680).
T3 construct: purchased in-house DSF kinase panel (SGC-style construct names; the trailing letter is the construct ID)
T3 sequence (Q14680 1-340): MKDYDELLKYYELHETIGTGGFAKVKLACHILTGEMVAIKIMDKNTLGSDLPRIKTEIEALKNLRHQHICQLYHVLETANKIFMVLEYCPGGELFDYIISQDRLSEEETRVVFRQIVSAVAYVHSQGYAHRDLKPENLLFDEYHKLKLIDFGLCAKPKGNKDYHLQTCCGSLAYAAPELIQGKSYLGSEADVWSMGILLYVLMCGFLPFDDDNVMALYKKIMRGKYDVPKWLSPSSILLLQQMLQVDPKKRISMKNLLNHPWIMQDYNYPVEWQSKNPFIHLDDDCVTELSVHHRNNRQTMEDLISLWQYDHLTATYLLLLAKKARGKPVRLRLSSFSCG

The target of a further test is T4, STK39A (Homo sapiens, UniProt Q9UEW8).
T4 construct: purchased in-house DSF kinase panel (SGC-style construct names; the trailing letter is the construct ID)

The target of the next test is T5, MAP2K6A (Homo sapiens, UniProt P52564).
T5 construct: purchased in-house DSF kinase panel (SGC-style construct names; the trailing letter is the construct ID)
T5 sequence (P52564 53-314): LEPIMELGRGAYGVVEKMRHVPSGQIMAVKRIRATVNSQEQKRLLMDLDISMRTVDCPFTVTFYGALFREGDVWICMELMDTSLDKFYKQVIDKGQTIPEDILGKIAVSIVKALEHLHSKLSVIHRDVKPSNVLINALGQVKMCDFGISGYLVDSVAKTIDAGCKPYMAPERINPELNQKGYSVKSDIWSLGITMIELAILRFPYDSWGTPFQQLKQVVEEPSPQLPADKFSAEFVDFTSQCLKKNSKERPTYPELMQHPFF

For the next test, the target named is T6, MAPK9A (Homo sapiens, UniProt P45984).
T6 construct: purchased in-house DSF kinase panel (SGC-style construct names; the trailing letter is the construct ID)
T6 sequence (P45984 7-364): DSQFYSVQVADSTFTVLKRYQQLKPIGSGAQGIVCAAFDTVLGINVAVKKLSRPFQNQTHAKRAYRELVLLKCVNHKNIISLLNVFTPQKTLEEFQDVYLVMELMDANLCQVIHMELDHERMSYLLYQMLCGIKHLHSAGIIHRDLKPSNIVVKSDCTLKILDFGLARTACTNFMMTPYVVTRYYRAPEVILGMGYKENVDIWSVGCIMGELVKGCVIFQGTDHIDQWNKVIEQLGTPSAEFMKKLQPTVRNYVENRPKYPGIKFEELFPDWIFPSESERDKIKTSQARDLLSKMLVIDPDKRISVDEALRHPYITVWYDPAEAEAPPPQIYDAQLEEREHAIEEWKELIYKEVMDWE

The next test has as its target T7, MAPK13A (Homo sapiens, UniProt O15264).
T7 construct: purchased in-house DSF kinase panel (SGC-style construct names; the trailing letter is the construct ID)
T7 sequence (O15264 1-365): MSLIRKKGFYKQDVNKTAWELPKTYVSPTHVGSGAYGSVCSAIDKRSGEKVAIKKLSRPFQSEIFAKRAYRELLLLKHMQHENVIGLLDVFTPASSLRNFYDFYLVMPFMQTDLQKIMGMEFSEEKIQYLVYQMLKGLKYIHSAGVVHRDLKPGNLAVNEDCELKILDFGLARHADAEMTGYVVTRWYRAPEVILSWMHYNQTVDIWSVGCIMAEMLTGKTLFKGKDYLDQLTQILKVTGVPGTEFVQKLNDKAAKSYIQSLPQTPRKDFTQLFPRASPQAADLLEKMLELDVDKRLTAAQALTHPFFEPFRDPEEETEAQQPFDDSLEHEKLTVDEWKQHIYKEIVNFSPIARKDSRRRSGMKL

The next test addresses T8, STK17BA (Homo sapiens, UniProt O94768).
T8 construct: purchased in-house DSF kinase panel (SGC-style construct names; the trailing letter is the construct ID)
T8 sequence (O94768 25-329): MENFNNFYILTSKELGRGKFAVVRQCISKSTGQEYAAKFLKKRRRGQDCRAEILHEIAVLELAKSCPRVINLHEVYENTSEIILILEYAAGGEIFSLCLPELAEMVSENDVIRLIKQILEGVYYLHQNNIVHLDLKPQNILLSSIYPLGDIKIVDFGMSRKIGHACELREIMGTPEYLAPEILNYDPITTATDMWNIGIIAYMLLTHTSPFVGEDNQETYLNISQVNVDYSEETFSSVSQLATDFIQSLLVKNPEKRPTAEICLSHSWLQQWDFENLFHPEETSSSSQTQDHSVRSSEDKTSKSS

For the next test, the target named is T9, AAK1 (AAK1A) (Homo sapiens, UniProt Q2M2I8).
T9 construct: purchased in-house DSF kinase panel (SGC-style construct names; the trailing letter is the construct ID)
T9 sequence (Q2M2I8 27-365): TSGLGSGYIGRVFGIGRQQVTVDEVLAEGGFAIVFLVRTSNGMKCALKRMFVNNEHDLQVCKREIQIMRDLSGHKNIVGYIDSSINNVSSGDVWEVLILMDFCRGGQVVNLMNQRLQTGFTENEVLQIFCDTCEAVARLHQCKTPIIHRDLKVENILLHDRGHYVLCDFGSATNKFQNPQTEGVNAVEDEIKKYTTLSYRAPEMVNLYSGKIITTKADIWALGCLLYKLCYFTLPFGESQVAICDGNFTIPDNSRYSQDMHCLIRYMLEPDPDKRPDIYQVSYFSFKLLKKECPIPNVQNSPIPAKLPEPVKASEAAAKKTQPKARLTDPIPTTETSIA

For a further test, the target named is T10, DMPK1A (Homo sapiens, UniProt Q09013).
T10 construct: purchased in-house DSF kinase panel (SGC-style construct names; the trailing letter is the construct ID)
T10 sequence (Q09013 1-629): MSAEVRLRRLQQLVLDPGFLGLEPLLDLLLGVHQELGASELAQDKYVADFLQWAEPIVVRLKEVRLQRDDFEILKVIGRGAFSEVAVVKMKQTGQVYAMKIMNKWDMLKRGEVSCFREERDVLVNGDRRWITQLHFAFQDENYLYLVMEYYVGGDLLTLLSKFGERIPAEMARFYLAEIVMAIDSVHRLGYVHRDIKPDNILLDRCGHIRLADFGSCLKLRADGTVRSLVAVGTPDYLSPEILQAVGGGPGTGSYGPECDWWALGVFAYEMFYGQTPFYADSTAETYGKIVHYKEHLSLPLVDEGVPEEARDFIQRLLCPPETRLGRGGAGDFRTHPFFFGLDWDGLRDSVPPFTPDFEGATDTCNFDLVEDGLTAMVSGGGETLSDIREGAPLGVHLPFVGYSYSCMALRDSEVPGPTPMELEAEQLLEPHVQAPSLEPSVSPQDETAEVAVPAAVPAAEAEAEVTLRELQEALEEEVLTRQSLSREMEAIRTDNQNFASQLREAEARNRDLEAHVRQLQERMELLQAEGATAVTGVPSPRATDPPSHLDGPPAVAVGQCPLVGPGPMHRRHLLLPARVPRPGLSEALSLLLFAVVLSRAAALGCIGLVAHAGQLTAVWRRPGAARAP

The target in a further test is T11, STK10 (Homo sapiens, UniProt O94804).
T11 construct: purchased in-house DSF kinase panel (SGC-style construct names; the trailing letter is the construct ID)
T11 sequence (O94804 18-317 limits assumed): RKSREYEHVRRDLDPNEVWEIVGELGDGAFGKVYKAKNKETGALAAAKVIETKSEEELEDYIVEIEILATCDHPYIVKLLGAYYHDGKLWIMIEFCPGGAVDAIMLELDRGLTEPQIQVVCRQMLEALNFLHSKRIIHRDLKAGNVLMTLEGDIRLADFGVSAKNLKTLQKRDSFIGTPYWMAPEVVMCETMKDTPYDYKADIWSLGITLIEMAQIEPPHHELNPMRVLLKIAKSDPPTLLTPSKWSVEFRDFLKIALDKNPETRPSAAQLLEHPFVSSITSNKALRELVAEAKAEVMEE

What is called ΔTm is the shift of the melting midpoint relative to a reference. In the case of `COc1ccccc1CNC(=O)Nc1ccc2cc1OCCOCCNc1ccn3ncc-2c3n1` [compound 29], the ΔTm at 10 µM was 1.1 °C at EPHA7A; 1.5 °C on DYRK2A; 1 °C at MELKA; 0.8 °C at STK39A; 0.7 °C at MAP2K6A; -2.1 °C on MAPK9A. Further, the thermal shift (ΔTm) at 10 µM came out at 0.02 °C at MAPK13A; 1.7 °C at STK17BA; 5.5 °C on AAK1 (AAK1A); 0.3 °C on DMPK1A; 7.5 °C at STK10.
Turning to `COc1cccc(CNC(=O)Nc2ccc3cc2OCCOCCNc2ccn4ncc-3c4n2)c1` [compound 30], the shift in melting temperature (ΔTm) at 10 µM is 1.5 °C on EPHA7A; 3.1 °C on DYRK2A; 1.3 °C on MELKA; 1.2 °C on STK39A; 0.9 °C on MAP2K6A; -1.9 °C on MAPK9A. Moreover, the shift in melting temperature (ΔTm) at 10 µM on MAPK13A is -0.1 °C; on STK17BA, 1.8 °C; at AAK1 (AAK1A), 6.3 °C; at DMPK1A it was 0.4 °C; at STK10 it was 7.1 °C.
As to `COc1ccc(CNC(=O)Nc2ccc3cc2OCCOCCNc2ccn4ncc-3c4n2)cc1` [compound 31], the shift in melting temperature (ΔTm) at 10 µM at EPHA7A was 1.8 °C; at DYRK2A it was 1.9 °C; on MELKA it was 1.7 °C; on STK39A, 1.2 °C; on MAP2K6A it was 1.2 °C; at MAPK9A, -1.3 °C. Also, the ΔTm at 10 µM was -1.3 °C at MAPK13A; 2.6 °C on STK17BA; 6.7 °C on AAK1 (AAK1A); 1 °C at DMPK1A; 6 °C on STK10. The “ΔTm STK10” value at STK10 (10 µM) was 6,7 °C.
As to `COc1ccc(CNC(=O)Nc2ccc3cc2OCCOCCNc2ccn4ncc-3c4n2)cc1F` [compound 32], the ΔTm at 10 µM on EPHA7A was 2.9 °C; at DYRK2A it was 1.8 °C; on MELKA, 1.4 °C; on STK39A, 1.4 °C; on MAP2K6A it was 1 °C; on MAPK9A it was -0.6 °C. For the same compound, the ΔTm at 10 µM on MAPK13A was -0.3 °C; at STK17BA, 3.4 °C; at AAK1 (AAK1A) it was 6.3 °C; at DMPK1A it was 0.6 °C; at STK10, 7.6 °C.
Consider `COc1cc(CNC(=O)Nc2ccc3cc2OCCOCCNc2ccn4ncc-3c4n2)ccc1F` [compound 33], for which the ΔTm at 10 µM was 1.9 °C on EPHA7A; 3.9 °C at DYRK2A; 2.1 °C at MELKA; 1.2 °C on STK39A; 1.1 °C on MAP2K6A; -1.2 °C at MAPK9A. In addition, the ΔTm at 10 µM is -0.3 °C on MAPK13A; 2.7 °C at STK17BA; 6.4 °C on AAK1 (AAK1A); 0.7 °C at DMPK1A; 6.7 °C on STK10.
As for `C[C@H](NC(=O)Nc1ccc2cc1OCCOCCNc1ccn3ncc-2c3n1)c1ccccc1` [compound 34], the ΔTm at 10 µM on EPHA7A was 1.9 °C; on DYRK2A, 4.3 °C; at MELKA it was 1.3 °C; at STK39A, 1 °C; on MAP2K6A it was 0.8 °C; on MAPK9A, -2 °C. The ΔTm at 10 µM at MAPK13A was -0.3 °C; at STK17BA it was 2.7 °C; on AAK1 (AAK1A), 5.9 °C; on DMPK1A, 0 °C; on STK10, 5.6 °C.
As to `CN1CCN(C(=O)Nc2ccc3cc2OCCOCCNc2ccn4ncc-3c4n2)CC1` [compound 35], the ΔTm at 10 µM at EPHA7A was -1.4 °C; at DYRK2A, 1.8 °C; at MELKA, 2.2 °C; on STK39A, 1.6 °C; at MAP2K6A, 0.4 °C; at MAPK9A it was 0.4 °C. In addition, the ΔTm at 10 µM turned out to be 0.4 °C at MAPK13A; 3.4 °C on STK17BA; 7.7 °C at AAK1 (AAK1A); 0.2 °C on DMPK1A; 3.7 °C at STK10.
